In US20260285875A1, “INHIBITORS OF PARG” (858 Therapeutics, Inc., priority 2023, published 2026):

Each molecule was assayed against T1, cellular PARG (Homo sapiens, UniProt Q86W56) (assay: Nuclear PAR accumulation assay (immunofluorescence high-content imaging, MMS-treated HeLa cells)). Settings: 1 hour compound then MMS 50 μg/mL for an additional hour.
T1 construct: endogenous in cells; host or cells: HeLa
T1 sequence (Q86W56 whole entry): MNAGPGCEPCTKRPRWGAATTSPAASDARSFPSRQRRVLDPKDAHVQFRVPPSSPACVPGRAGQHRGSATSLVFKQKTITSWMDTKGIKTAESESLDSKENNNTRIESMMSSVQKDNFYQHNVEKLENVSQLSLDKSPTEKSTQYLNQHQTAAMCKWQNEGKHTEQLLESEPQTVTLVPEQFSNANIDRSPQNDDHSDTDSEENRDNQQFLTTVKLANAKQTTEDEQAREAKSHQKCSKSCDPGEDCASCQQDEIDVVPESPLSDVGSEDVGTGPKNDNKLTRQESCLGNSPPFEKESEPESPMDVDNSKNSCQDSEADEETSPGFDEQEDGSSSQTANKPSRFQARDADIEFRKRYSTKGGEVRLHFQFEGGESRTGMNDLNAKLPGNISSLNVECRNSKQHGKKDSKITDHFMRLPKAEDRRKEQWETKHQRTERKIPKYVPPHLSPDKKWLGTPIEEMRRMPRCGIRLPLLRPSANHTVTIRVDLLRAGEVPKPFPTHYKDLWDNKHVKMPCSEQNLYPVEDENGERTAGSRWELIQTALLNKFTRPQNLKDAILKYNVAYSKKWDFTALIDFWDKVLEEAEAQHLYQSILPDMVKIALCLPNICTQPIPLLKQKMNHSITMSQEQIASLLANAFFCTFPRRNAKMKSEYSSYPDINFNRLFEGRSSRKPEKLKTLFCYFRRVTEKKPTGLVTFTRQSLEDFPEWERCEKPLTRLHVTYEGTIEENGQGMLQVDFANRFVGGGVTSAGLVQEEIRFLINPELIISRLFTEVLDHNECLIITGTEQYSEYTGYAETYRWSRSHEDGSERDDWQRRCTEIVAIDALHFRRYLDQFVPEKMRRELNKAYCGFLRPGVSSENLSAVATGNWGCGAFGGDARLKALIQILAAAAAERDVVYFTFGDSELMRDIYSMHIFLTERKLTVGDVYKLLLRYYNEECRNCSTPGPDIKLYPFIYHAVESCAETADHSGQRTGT
Assay type: cell-based
Procedure, shortened: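 HeLa cells pretreated with compound for 1 h at 37° C, then given 50 μg/mL MMS for another hour. After methanol fixation, PAR was immunostained with DAPI nuclear counterstain; per-nucleus intensity and percent PAR-positive cells were imaged at 20× (≥1,000 cells/well). IC50 from four-parameter logistic fit.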
Work on C[C@@H]1CN=C2N(Cc3ccc(C#N)nc3)C(=O)c3cc(S(=O)(=O)NC4(C)CC4)ccc3N21 [Example 233, (R)-4-((6-cyanopyridin-3-yl)methyl)-1-methyl-N-(1-methylcyclopropyl)-5-oxo-1,2,4,5-tetrahydroimidazo[1,2-a]quinazoline-7-sulfonamide] yielded an IC50 of under 100 nM.
Molecule Cn1cc(CN2C(=O)c3cc(S(=O)(=O)NC4(C)CC4)cc(-c4ccc(Cl)cc4)c3N3CCN=C23)cn1 [Example 21, 9-(4-chlorophenyl)-4-((1-methyl-1H-pyrazol-4-yl)methyl)-N-(1-methylcyclopropyl)-5-oxo-1,2,4,5-tetrahydroimidazo[1,2-a]quinazoline-7-sulfonamide] has an IC50 of 100 to 1000 nM.
[2H]C([2H])(c1cnn(C)c1)N1C(=O)c2cc(S(=O)(=O)NC3(C)CC3)ccc2N2C1=NC[C@H]2C#CC1(C)CC1 [Example 49, (R)-4-((1-methyl-1H-pyrazol-4-yl)methyl-d2)-N-(1-methylcyclopropyl)-1-((1-methylcyclopropyl)ethynyl)-5-oxo-1,2,4,5-tetrahydroimidazo[1,2-a]quinazoline-7-sulfonamide] showed an IC50 of under 100 nM.
[2H]C([2H])(c1cnn(C)c1)N1C(=O)c2cc(S(=O)(=O)NC3(C)CC3)ccc2N2C1=NC[C@H]2C#Cc1nccnc1OC [Example 249, (R)-1-((3-methoxypyrazin-2-yl)ethynyl)-4-((1-methyl-1H-pyrazol-4-yl)methyl-d2)-N-(1-methylcyclopropyl)-5-oxo-1,2,4,5-tetrahydroimidazo[1,2-a]quinazoline-7-sulfonamide] gave an IC50 of under 100 nM.
In the case of [2H]C([2H])(c1cnn(C)c1)N1C(=O)c2cc(S(=O)(=O)NC3(C)CC3)ccc2N2C1=N[C@@H]1C[C@@H](N)C[C@@H]12 [Example 283, (7aR,9R,10aS)-9-amino-6-((1-methyl-1H-pyrazol-4-yl)methyl-d2)-N-(1-methylcyclopropyl)-5-oxo-6,7a,8,9,10,10a-hexahydro-5H-cyclopenta[4,5]imidazo[1,2-a]quinazoline-3-sulfonamide], the IC50 is reported as 1000 to 10000 nM.
In the case of Cc1cccc(C#CC2CN=C3N(C)C(=O)c4cc(S(=O)(=O)NC5(C)CC5)ccc4N32)n1 (stereo not shown) [Example 225, 4-methyl-N-(1-methylcyclopropyl)-1-((6-methylpyridin-2-yl)ethynyl)-5-oxo-1,2,4,5-tetrahydroimidazo[1,2-a]quinazoline-7-sulfonamide], the IC50 is reported as under 100 nM.
Work on C[C@@H]1CN(c2cc(S(=O)(=O)NC3(C)CC3)cc3c2N2C(=NC[C@H]2C)N(C)C3=O)C[C@@H](C)O1 [Example 126, (R)-9-((2R,6R)-2,6-dimethylmorpholino)-1,4-dimethyl-N-(1-methylcyclopropyl)-5-oxo-1,2,4,5-tetrahydroimidazo[1,2-a]quinazoline-7-sulfonamide] yielded an IC50 of 100 to 1000 nM.
In the case of [2H]C([2H])(c1cnn(C)c1)N1C(=O)c2cc(S(=O)(=O)NC3(C)CC3)ccc2N2C1=NC[C@H]2C#Cc1cncnc1N [Example 268, (R)-1-((4-aminopyrimidin-5-yl)ethynyl)-4-((1-methyl-1H-pyrazol-4-yl)methyl-d2)-N-(1-methylcyclopropyl)-5-oxo-1,2,4,5-tetrahydroimidazo[1,2-a]quinazoline-7-sulfonamide], the IC50 is reported as under 100 nM.
With Cc1cc(C#C[C@@H]2CN=C3N(Cc4cnn(C)c4)C(=O)c4cc(S(=O)(=O)NC5(C)CC5)ccc4N32)n(C)n1 [Example 192, (R)-1-((1,3-dimethyl-1H-pyrazol-5-yl)ethynyl)-4-((1-methyl-1H-pyrazol-4-yl)methyl)-N-(1-methylcyclopropyl)-5-oxo-1,2,4,5-tetrahydroimidazo[1,2-a]quinazoline-7-sulfonamide] the IC50 was under 100 nM.
With CN1C(=O)c2cc(S(=O)(=O)NC3(C)CC3)ccc2N2C1=NC[C@H]2C#CC1(N(C)C)CC1 [Example 129, (R)-1-((1-(dimethylamino)cyclopropyl)ethynyl)-4-methyl-N-(1-methylcyclopropyl)-5-oxo-1,2,4,5-tetrahydroimidazo[1,2-a]quinazoline-7-sulfonamide] the IC50 was under 100 nM.
Molecule CCN1C(=O)c2cc(S(=O)(=O)NC3(C)CC3)ccc2N2C1=NC[C@H]2C#Cc1cnc2cc(C#N)cnn12 [Example 206, (R)-1-((7-cyanoimidazo[1,2-b]pyridazin-3-yl)ethynyl)-4-ethyl-N-(1-methylcyclopropyl)-5-oxo-1,2,4,5-tetrahydroimidazo[1,2-a]quinazoline-7-sulfonamide] has an IC50 of under 100 nM.
C[C@@H]1CN=C2N(Cc3cnn4c3CNCC4)C(=O)c3cc(S(=O)(=O)NC4(C)CC4)ccc3N21 [Example 177, (R)-1-methyl-N-(1-methylcyclopropyl)-5-oxo-4-((4,5,6,7-tetrahydropyrazolo[1,5-a]pyrazin-3-yl)methyl)-1,2,4,5-tetrahydroimidazo[1,2-a]quinazoline-7-sulfonamide] gave an IC50 of 100 to 1000 nM.
Work on CN1CCN(C2(C#C[C@@H]3CN=C4N(C)C(=O)c5cc(S(=O)(=O)NC6(C)CC6)ccc5N43)CC2)CC1 [Example 229, (R)-4-methyl-N-(1-methylcyclopropyl)-1-((1-(4-methylpiperazin-1-yl)cyclopropyl)ethynyl)-5-oxo-1,2,4,5-tetrahydroimidazo[1,2-a]quinazoline-7-sulfonamide] yielded an IC50 of 100 to 1000 nM.
Molecule Cn1cc(CN2C(=O)c3cc(S(=O)(=O)NC4(C)CC4)ccc3N3C2=N[C@H]2CCCC[C@H]23)cn1 [Example 145, (7aS,11aR)-6-((1-methyl-1H-pyrazol-4-yl)methyl)-N-(1-methylcyclopropyl)-5-oxo-5,6,7a,8,9,10,11,11a-octahydrobenzo[4,5]imidazo[1,2-a]quinazoline-3-sulfonamide] has an IC50 of under 100 nM.
With CN1C(=O)c2cc(S(=O)(=O)NC3(C)CC3)ccc2N2C1=NCC2C#Cc1cncc(C#N)c1 (stereo not shown) [Example 134, 1-((5-cyanopyridin-3-yl)ethynyl)-4-methyl-N-(1-methylcyclopropyl)-5-oxo-1,2,4,5-tetrahydroimidazo[1,2-a]quinazoline-7-sulfonamide] the IC50 was under 100 nM.
For C[C@@H]1CN=C2N(Cc3cnn(C)c3)C(=O)c3cc(S(=O)(=O)NC4(C)COC4)ccc3N21 [Example 73, (R)-1-methyl-4-((1-methyl-1H-pyrazol-4-yl)methyl)-N-(3-methyloxetan-3-yl)-5-oxo-1,2,4,5-tetrahydroimidazo[1,2-a]quinazoline-7-sulfonamide], the IC50 was 100 to 1000 nM.
Molecule COc1ccc(CN2C(=O)c3cc(S(=O)(=O)NC4(C)CC4)ccc3N3C2=N[C@H]2CCC[C@H]23)cn1 [Example 273, (7aS,10aR)-6-((6-methoxypyridin-3-yl)methyl)-N-(1-methylcyclopropyl)-5-oxo-6,7a,8,9,10,10a-hexahydro-5H-cyclopenta[4,5]imidazo[1,2-a]quinazoline-3-sulfonamide] has an IC50 of 100 to 1000 nM.
In the case of Cn1cc(CN2C(=O)c3cc(S(=O)(=O)NC4(C)CC4)ccc3N3C2=NC[C@@H]3C2CCCC2)cn1 [Example 93, (S)-1-cyclopentyl-4-((1-methyl-1H-pyrazol-4-yl)methyl)-N-(1-methylcyclopropyl)-5-oxo-1,2,4,5-tetrahydroimidazo[1,2-a]quinazoline-7-sulfonamide], the IC50 is reported as 100 to 1000 nM.
Work on CNC1(C#C[C@@H]2CN=C3N(Cc4cnn(C)c4)C(=O)c4cc(S(=O)(=O)NC5(C)CC5)ccc4N32)CC1 [Example 127, (R)-4-((1-methyl-1H-pyrazol-4-yl)methyl)-1-((1-(methylamino)cyclopropyl)ethynyl)-N-(1-methylcyclopropyl)-5-oxo-1,2,4,5-tetrahydroimidazo[1,2-a]quinazoline-7-sulfonamide] yielded an IC50 of under 100 nM.
Molecule CCN1C(=O)c2cc(S(=O)(=O)NC3(C)CC3)ccc2N2C1=NC[C@H]2C#Cc1c2ncccc2nn1C [Example 208, (R)-4-ethyl-1-((2-methyl-2H-pyrazolo[4,3-b]pyridin-3-yl)ethynyl)-N-(1-methylcyclopropyl)-5-oxo-1,2,4,5-tetrahydroimidazo[1,2-a]quinazoline-7-sulfonamide] has an IC50 of under 100 nM.
Work on [2H]C([2H])(c1cnn(C)c1)N1C(=O)c2cc(S(=O)(=O)NC3(C)CC3)c(NC)cc2N2C1=N[C@H]1CCC[C@H]12 [Example 222, (7aS,10aR)-6-((1-methyl-1H-pyrazol-4-yl)methyl-d2)-2-(methylamino)-N-(1-methylcyclopropyl)-5-oxo-6,7a,8,9,10,10a-hexahydro-5H-cyclopenta[4,5]imidazo[1,2-a]quinazoline-3-sulfonamide] yielded an IC50 of under 100 nM.
For Cn1cc(CN2C(=O)c3cc(S(=O)(=O)NC4(C)CC4)ccc3N3C2=NC[C@H]3C#CC(F)F)cn1 [Example 99, (R)-1-(3,3-difluoroprop-1-yn-1-yl)-4-((1-methyl-1H-pyrazol-4-yl)methyl)-N-(1-methylcyclopropyl)-5-oxo-1,2,4,5-tetrahydroimidazo[1,2-a]quinazoline-7-sulfonamide], the IC50 was under 100 nM.
CN(C)CC#C[C@@H]1CN=C2N(Cc3cnn(C)c3)C(=O)c3cc(S(=O)(=O)NC4(C)CC4)cc(Cl)c3N21 [Example 100, (R)-9-chloro-1-(3-(dimethylamino)prop-1-yn-1-yl)-4-((1-methyl-1H-pyrazol-4-yl)methyl)-N-(1-methylcyclopropyl)-5-oxo-1,2,4,5-tetrahydroimidazo[1,2-a]quinazoline-7-sulfonamide] showed an IC50 of under 100 nM.
With CN1C(=O)c2cc(S(=O)(=O)NC3(C)CC3)ccc2N2C1=NC[C@H]2C#Cc1ccc2nn(C)cc2c1 [Example 142, (R)-4-methyl-1-((2-methyl-2H-indazol-5-yl)ethynyl)-N-(1-methylcyclopropyl)-5-oxo-1,2,4,5-tetrahydroimidazo[1,2-a]quinazoline-7-sulfonamide] the IC50 was under 100 nM.
Molecule CCN1C(=O)c2cc(S(=O)(=O)NC3(C)CC3)c(F)cc2N2C1=N[C@H]1CCC[C@H]12 [Example 264, (7aS,10aR)-6-ethyl-2-fluoro-N-(1-methylcyclopropyl)-5-oxo-6,7a,8,9,10,10a-hexahydro-5H-cyclopenta[4,5]imidazo[1,2-a]quinazoline-3-sulfonamide] has an IC50 of under 100 nM.
